{"source": "patent US9850382B1", "about": "“Unsymmetrical cyanine dyes and their application” (priority 2016, dated 2017)", "key": {"[1]": {"tested_on": "rRNA", "experiment": "Microplate fluorescence intensity with RNA dilutions", "type": "binding", "conditions": "dye 400 nM, RNA up to 1000 ng/mL in 1×TE, Ex/Em=620/660 nm, FIG. 2", "description": "(§1) A series of RNA and DNA dilutions up to 1000 ng/mL in 1×TE buffer is added to the wells of a 96-well microplate. A series of mixture of RNA and DNA is prepared according to the following table, and is added to separate wells.\n(§2) Compound 9 is added to each well at a final concentration of 400 nM. The fluorescence intensity is measured on a fluorescence plate reader with Ex/Em=620/660 nm."}, "[2]": {"tested_on": "mixture of RNA and DNA at 1:1 ratio", "experiment": "Selectivity test on a 1:1 mixture of RNA and DNA", "type": "binding", "conditions": "dye 100 nM, RNA:DNA 1:1 up to 200 ng/mL each in 1×TE, Ex/Em=620/660 nm, FIG. 3", "description": "In another experiment, a series of RNA and DNA dilutions up to 200 ng/mL in 1×TE buffer is added to the wells of a 96-well microplate. A series of mixture of RNA and DNA at 1:1 ratio is prepared according to the following table, and is added to separate wells.\nCompound 9 is added to each well at a final concentration of 100 nM. The fluorescence intensity is measured on a fluorescence plate reader with Ex/Em=620/660 nm."}, "[3]": {"tested_on": "rRNA", "experiment": "Detection of nucleic acids on microarrays, rRNA spots", "type": "binding", "conditions": "~1 μM dye in 1×TE, 5 minutes, 633 nm laser excitation", "description": "(§3) A microarray consisting of a dilution series of DNA marker and rRNA is printed on a slide using a microarray spotter. The slide is equilibrated in 1×SSC buffer to remove any excess printing buffer, and then soaked with compound 9 solution at ˜1 μM final concentration in 1×TE buffer for 5 minutes, followed by a 5 minute wash in 1×TE buffer to remove any excess compound. The slide is then imaged using a array scaner using 633 nm laser excitation."}, "[4]": {"tested_on": "rRNA, tRNA and mRNA", "experiment": "Selectivity test on different source of RNA", "type": "binding", "conditions": "dye 400 nM, RNA up to 1000 ng/mL in 1×TE, Ex/Em=620/660 nm, FIG. 4", "description": "A series of rRNA, tRNA and mRNA dilutions up to 1000 ng/mL in 1×TE buffer is added to the wells of a 96-well microplate. Compound 9 is added to each well at a final concentration of 400 nM. The fluorescence intensity is measured on a fluorescence plate reader with Ex/Em=620/660 nm."}, "[5]": {"tested_on": "rRNA and 1 kb DNA Ladder", "experiment": "Detection of nucleic acids in electrophoretic gels (post-gel staining)", "type": "binding", "conditions": "1% agarose gel, ~1 μM dye in 1×TE, ~30 min staining, 633 nm laser, 675 nm filter", "description": "Agarose gels (1% agarose) are prepared according to a standard protocol. Serial two-fold dilutions of 1 kb DNA Ladder from Invitrogen and rRNA from Roche are prepared, and the resulting DNA and RNA samples are loaded onto an agarose gel. The DNA and RNA samples are electrophoretically separated in 1×TBE buffer using a standard protocol. A stock solution of compound 9 is diluted into ˜1 μM final concentration in 1×TE buffer. The agarose gels are incubated in the staining solutions for ˜30 min to stain the gels. The stained nucleic acid bands are recorded using Fuji FLA-3000 gel scanner, using 633 nm laser illumination, and a 675 nm filter."}, "[6]": {"tested_on": "mixture of RNA and DNA", "experiment": "Selectivity test on a mixture of RNA and DNA (total 1000 ng/mL)", "type": "binding", "conditions": "dye 400 nM, RNA+DNA total 1000 ng/mL in 1×TE, Ex/Em=620/660 nm, FIG. 2", "description": "as §1, §2"}, "[7]": {"tested_on": "calf thymus DNA", "experiment": "Microplate fluorescence intensity with DNA dilutions", "type": "binding", "conditions": "dye 400 nM, DNA up to 1000 ng/mL in 1×TE, Ex/Em=620/660 nm, FIG. 2", "description": "as §1, §2"}, "[8]": {"tested_on": "E. coli rRNA versus calf thymus DNA", "experiment": "Selectivity test on RNA vs dsDNA (emission spectra in TE buffer)", "type": "binding", "conditions": "10 μg/mL calf thymus DNA or E. coli rRNA in 1×TE, 5 μL of 100 μM dye per mL, excitation 620 nm, FIG. 1", "description": "A stock solution of compound 9 was prepared at 100 μM concentration in DMSO. Calf thymus DNA, and E. coli rRNA were prepared at 10 μg/mL concentration in 1×TE buffer, individually. To 1 mL of DNA solution and 1 mL of RNA solution was added with 5 μL of compound 9, individually. The emission spectrum associated with each of the solutions was scaned at excitation wavelength 620 nm."}, "[9]": {"tested_on": "DNA marker", "experiment": "Detection of nucleic acids on microarrays, DNA spots", "type": "binding", "conditions": "~1 μM dye in 1×TE, 5 minutes, 633 nm laser excitation", "description": "as §3"}, "[10]": {"tested_on": "nucleic acids", "conditions": "cited from earlier work"}}}
{"molecule": "CCN(CC)Cc1ccc(C(=C\\c2sc3ccc(S(=O)(=O)NCCCS(=O)(=O)[O-])cc3[n+]2C)/C=C2\\C=CN(C)c3ccccc32)cc1", "note": "[Compound 9]", "values": [{"measurement": "fluorescence intensity response with RNA concentration", "setting": "[1]", "value": "nice linear response"}, {"measurement": "selectivity on RNA in a mixture of RNA and DNA", "setting": "[2]", "value": "excellent selectivity"}, {"measurement": "staining of rRNA spots on microarray", "setting": "[3]", "value": "stained"}, {"measurement": "fluorescent signal when associated with rRNA, tRNA and mRNA", "setting": "[4]", "value": "comparable fluorescent signal"}, {"measurement": "fluorescence signal of RNA bands versus corresponding DNA bands in gel", "setting": "[5]", "value": "much brighter"}, {"measurement": "fluorescence intensity of mixture of RNA and DNA compared with RNA alone", "setting": "[6]", "value": "the same for the corresponding concentration of RNA"}, {"measurement": "fluorescence signal with DNA alone", "setting": "[7]", "value": "little to no signal"}, {"measurement": "selectivity for RNA versus DNA (fluorescence emission spectra)", "setting": "[8]", "value": "good selectivity"}, {"measurement": "staining of DNA spots on microarray", "setting": "[9]", "value": "undetectable"}]}
{"molecule": "CN1C(=Cc2cc[n+](C)c3ccccc23)Sc2ccccc21", "note": "[Thiazole Orange, reference compound]", "values": [{"measurement": "detection sensitivity on nucleic acids", "setting": "[10]", "value": "low detection sensitivity"}]}
{"molecule": "CCCN1C=C/C(=C\\c2sc3ccccc3[n+]2C)c2ccccc21", "note": "[SYBR Safe]", "values": [{"measurement": "detection sensitivity on nucleic acids", "setting": "[10]", "value": "low sensitive"}]}
